Assay results from article PMC11476017, “A Lincomycin-Specific Antibody Was Developed Using Hapten Prediction, and an Immunoassay Was Established to Detect Lincomycin in Pork and Milk” (Foods, 2024).

System: T1, monoclonal antibody 1B11 (LIN/1B11)
T1 construct: whole monoclonal antibody, IgG1
Assay: indirect competitive ELISA with LIN-NaIO4-OVA coating antigen
Format: binding

## CCC[C@@H]1C[C@@H](C(=O)N[C@@H]([C@H]2O[C@H](SC)[C@H](O)[C@@H](O)[C@H]2O)[C@@H](C)O)N(C)C1 [LIN, lincomycin]
  IC50: 0.57 ± 0.03 µg/kg
